From article PMC4850288, “Crystal Structure and Activity Studies of the C11 Cysteine Peptidase from Parabacteroides merdae in the Human Gut Microbiome” (The Journal of Biological Chemistry, 2016)
Residue numbers refer to the chain shown, from its start.

Columns and labels:
PmC11 [1] = biological target: T1, PmC11 (Parabacteroides merdae, UniProt A0ABF7PHE6, K147A, form not given); assay: fluorogenic AMC release, Lineweaver-Burk; type: biochemical; conditions: pH 8.0, 20 mM Tris, 150 mM NaCl, 37 °C; enzyme preincubated 16 h at 37 °C; 0-600 μM substrate; unprocessed cleavage-site mutant
T1 construct: gene PARMER_00083; signal peptide Met1-Asn22 deleted (for structure); N-terminal tag MGSDKIHHHHHHENLYFQ/G, kept in assays; E. coli BL21 Star (DE3); monomer
T1 sequence (A0ABF7PHE6 23-147 K147A): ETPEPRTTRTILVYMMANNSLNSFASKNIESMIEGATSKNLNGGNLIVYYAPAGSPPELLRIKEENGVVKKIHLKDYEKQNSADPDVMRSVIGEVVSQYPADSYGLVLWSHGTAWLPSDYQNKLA
T1 sequence (A0ABF7PHE6 148-375): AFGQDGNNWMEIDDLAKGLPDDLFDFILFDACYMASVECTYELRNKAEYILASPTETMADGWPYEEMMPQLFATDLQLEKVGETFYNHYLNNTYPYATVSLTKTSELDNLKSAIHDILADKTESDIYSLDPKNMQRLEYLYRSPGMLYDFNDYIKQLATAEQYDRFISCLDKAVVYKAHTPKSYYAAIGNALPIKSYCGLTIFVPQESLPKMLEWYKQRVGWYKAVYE
Protocol: (§1) fluorogenic AMC release, Lineweaver-Burk on PmC11 | Km and Vmax of PmC11 and K147A mutant were determined by monitoring change in the fluorescence

PmC11 [2] = biological target: T2, PmC11 (Parabacteroides merdae, UniProt A0ABF7PHE6); assay: fluorogenic AMC release, Lineweaver-Burk; type: biochemical; conditions: pH 8.0, 20 mM Tris, 150 mM NaCl, 37 °C; enzyme preincubated 16 h at 37 °C; 0-600 μM substrate
T2 construct: gene PARMER_00083; signal peptide Met1-Asn22 deleted (for structure); N-terminal tag MGSDKIHHHHHHENLYFQ/G, kept in assays; E. coli BL21 Star (DE3); monomer
T2 sequence (A0ABF7PHE6 23-147): T1 sequence (A0ABF7PHE6 23-147 K147A) with A125K
T2 sequence (A0ABF7PHE6 148-375): T1 sequence (A0ABF7PHE6 148-375)
Protocol: as §1

## Cc1cc(=O)oc2cc(NC(=O)[C@H](CCCNC(=N)N)NC(=O)c3ccccc3)ccc12 [Bz-R-AMC, benzoyl-L-Arg-4-methylcoumaryl-7-amide]
PmC11 [1]
  Km: 301 ± 239 µM
PmC11 [2]
  Km: 274 ± 6 µM
